We go through two molecules from article PMC12428610, “Gas-Binding Studies of Class 1 Sugar Beet Phytoglobin and C86A Mutant Using Isothermal Spectral Shifts in High-Precision Microliter Assay” (International Journal of Molecular Sciences, 2025).

Where “and” joins values, the source holds several entries; their conditions need not be identical. Equal values may be shown once. Read-outs that look alike come from different tables or passages of the source.

One assay deals with BvPgb 1.2 C86A mutant. The experiment in a line: Isothermal spectral shift (SpS) gas-binding titration, Monolith X, RED-NHS-labeled protein. Also on record: species or system Beta vulgaris. An excerpt: (§1) The microscale capillary-based technology described here employs isothermal spectral shift (SpS). SpS has previously primarily been used for the determination of protein–protein interactions. In this study, we examine the possibility to extend the use of this technique to also include the binding of small ligands, like gases, to proteins. Ligand binding induces shifts in fluorescence spectra (blue- or red-shifts), which are detectable under isothermal conditions via dual-wavelength fluorescence detection at 650 nm and 670 nm. By plotting fluorescence intensity ratios (670/650 nm) against ligand concentration, the SpS-derived KD can be obtained. Our goal is to determine KD or half maximal effective concentrations (EC50) from ligand titration series. Here, we present a streamlined microscale method employing fluorophore-labeled proteins in gas-saturated microscale capillaries.
(§2) The proteins were thus incubated in solutions enriched with either CO or dissolved NONOate, utilizing a loading buffer (PBS-T20) to maintain gas saturation. Subsequent titrations of gas-enriched solutions yielded clear, reproducible dose–response curves.
(§3) All SpS measurements conducted in this study were performed using the Monolith X instrument (NanoTemper Technologies GmbH, München, Germany), which is equipped with dual-emission detection optics. The MO.Control 2software (NanoTemper Technologies GmbH) was used to calculate fluorescence intensity ratios at 670 and 650 nm. KD values were determined by fitting dose–response curves to a binding model that follows the law of mass action with a 1:1 interaction stoichiometry. This model defines the bound fraction, f(cL), at equilibrium for a given ligand concentration, cL, as given by Equation (1):(1) fcL=cL+cT+KD−cL+cT+KD^2−4cLcT/2cT where cT is the final concentration of target in the assay. The KD is estimated by fitting Equation (1) with the ratiometric expression seen in Equation (2):(2) RcL=Rf+fcL·Rb−Fb/Ff·Rf/1+fcL·Fb/Ff−1 where R(cL) represents the 670 nm/650 nm ratio at a given cL, Rf corresponds to the ratio of the free target, and Rb corresponds to the bound complex. The parameters Fb and Ff, derived from the sigmoidal dose–response curve fitting of the […], adjust for ligand-induced changes in fluorescence intensity at 650 nm.
(§4) Covalent labeling of primary amines was performed using the Protein Labeling Kit RED-NHS 2nd Generation (cat# MO-L011; NanoTemper Technologies GmbH). The assay buffer (PBS-T20) was prepared by supplementing degassed PBS pH 7.4 (cat# 21-040-CV; Corning, NY, USA) with 0.05% Tween20. Purified proteins in Tris were subjected to buffer exchange using the A-column prior to labeling. Briefly, a twofold molar excess of dye was added to the protein prepared to a final concentration of 20 µM. Proteins and dye were incubated for 30 min at room temperature in the dark to avoid photobleaching. Free dye was removed from the labeled protein using the provided B-column. Labeled proteins were kept in the dark and on ice awaiting capillary loading.
(§5) A working 1 mM CO solution was prepared by sparging PBS-T20 with CO, with the concentration approximated through Henry’s law for CO dissolvability in water (kH(CO) ≈ 0.001 mol l^−1 bar^−1). A working 2 mM NO solution (kH(NO) ≈ 0.002 mol l^−1 bar^−1) was prepared by dissolving 25 mg of NONOate (cat# D184-25MG; Merck, Darmstadt, Germany) in 15 mL of PBS-T20 to obtain a 10.75 mM solution, which provides a 10-molar excess of saturation upon decomposition. The NONOate PBS-T20 solution was gently agitated to create a gas-buffer zone to capture decomposing NONOate. Ligand solutions were prepared as 16-point serial dilutions of 10 µL in PCR-strip tubes, before being mixed by means of aspiration with 10 µL of labeled protein and incubated for 5 min. […]

The target in assay [1] is BvPgb 1.2 recombinant wild type (rWT). The assay is described as above. More on the design: species or system Beta vulgaris.
Description: as §1, §2, §3, §4, §5

The next assay deals with BvPgb 1.2. The experiment in a line: Flash photolysis and stopped-flow rapid mixing; KD calculated per Equation (3). Format: binding, Beta vulgaris. The settings on record: rWT, calculated per Equation (3) KD,obs=koff(1+KH)/kon from kinetic parameters of ref 30. An excerpt: Our obtained results are consistent with KD values derivable from earlier work, where kinetic parameters for BvPgb 1.2 were obtained using stopped-flow rapid mixing and flash photolysis, allowing the calculation of a single apparent KD per gas. While not explicitly reported, KD can be estimated from those data using Equation (3):(3) KD,obs=koff(1+KH)/kon where KH is the hexacoordination equilibrium constant and the (1 + KH) factor is used to account for the “penalty” imposed by the hexacoordinated fraction. […] The additional lower KD or EC50 for CO (400–500 nM) observed with our method likely reflects the contribution of the closed protein form, consistent with the 100–1000-fold kinetic differences reported in [27, 28, 29].

Setting [2] is: first transition of biphasic dose-response, read-out: EC50, CO binding, first transition.
Where [3] appears, read: second transition of biphasic dose-response, read-out: EC50, CO binding, second transition.
The mark [4] stands for this setting: PBS-T20 pH 7.4, NO from NONOate, read-out: KD(NO), Isothermal Spectral Shift.
The mark [5] stands for this setting: text and figure legend, read-out: KD, NO binding.

In the case of `[C-]#[O+]` [CO, carbon monoxide], the “KD(CO, closed) /EC50,2, Isothermal Spectral Shift” value at BvPgb 1.2 C86A mutant (PBS-T20 pH 7.4) was found to be 500 ± 200 nM; in assay [1] (PBS-T20 pH 7.4), 400 ± 100 nM. The “KD(CO, open) /EC50,1, Isothermal Spectral Shift” value at BvPgb 1.2 C86A mutant (PBS-T20 pH 7.4) is 400000 ± 300000 nM; in assay [1] (PBS-T20 pH 7.4), 700000 ± 200000 nM. In addition, the EC50 on BvPgb 1.2 C86A mutant (setting [2]) is around 500 nM; at BvPgb 1.2 C86A mutant (setting [3]) it was around 400000 nM; in assay [1] (setting [2]) it was around 400 nM; in assay [1] (setting [3]), around 700000 nM. Also, on BvPgb 1.2 (read-out: KD(CO, open), Flash Photolysis and Stopped-Flow Rapid Mixing), the Kd is around 100000 nM.

nitric oxide [NO]: the Kd at BvPgb 1.2 C86A mutant (setting [4]) was 400 ± 100 nM; on BvPgb 1.2 C86A mutant (setting [5]) it was 400 nM and ~400 nM; in assay [1] (setting [4]), 1600 ± 100 nM; in assay [1] (setting [5]) it was 1600 nM and ~1600 nM; on BvPgb 1.2 (read-out: KD(NO), Flash Photolysis and Stopped-Flow Rapid Mixing) it was around 6400 nM.
